Source: patent US20250017964A1, “ENGINEERING OR INDUCING PDGF AND/OR PDGFR SIGNALING TO ENHANCE NK CELL THERAPY” (City of Hope, priority 2021, published 2025)

Key:
PDGFRβ = PDGFRβ localisation: immunofluorescence and immunoblot of cell fractions; assay type: cell-based, human
Method: FIGS. 1A-1J. IL-15 induces PDGFRβ expression in human NK cells. (A-C) NK cells were purified from PBMCs of healthy donors and stimulated with IL-15 (10 ng/ml) for 24 h. Expression levels of PDGFRα and PDGFRβ were examined by flow cytometry. Data shown are representative dot plots (A), percentages (B), and mean fluorescence intensity (MFI) of PDGFRβ in NK cells (C) (n=20). Resting NK cells were used as the control. (D-E) NK cells were treated with various doses of IL-15 for 24 h (D) or with the same dose of IL-15 (10 ng/ml) at the indicated times (E). Data shown are the percentages of PDGFRβ^+ NK cells among total NK cells (n=5). (F) Immunofluorescence analysis of PDGFRβ expression on resting and IL-15-treated NK cells. Sodium-potassium ATPase was used as a cell membrane marker. Bar=20 μm. (G) Expression of PDGFRβ in the cytoplasmic, nuclear, and cell membrane fractions of NK cells determined by immunoblotting. […] Expression levels of PDGFRβ were then determined by flow cytometry. […]
RNA was isolated using an RNeasy Mini Kit (QIAGEN) and reversely transcribed to cDNA with a PrimeScript RT Reagent Kit with gDNA Eraser (Takara Bio) according to the manufacturer's protocol. mRNA expression levels were analyzed using SYBR Green qPCR Master Mix and a QuantStudio 12K Flex Real-Time PCR System (both from Thermo Fisher Scientific). […]

PDGF-D promoter = test: ChIP-qPCR, binding of p65 to the PDGF-D promoter; assay type: cell-based, human; conditions: IL-15-stimulated NK cells (1 h); not in resting NK cells
Method: FIGS. 5A-5J. IL-15 induces PDGF-D expression in an autocrine manner. (A) mRNA levels of PDGFA, PDGFB, PDGFC, and PDGF-D in T cells, B cells, and NK cells were analyzed using the BioGPS online tool. (B) mRNA levels of PDGFA, PDGFB, PDGFC, and PDGF-D in T cells, B cells, and NK cells were examined by qPCR (n=10). (C) Primary NK cells were treated with IL-15 (10 ng/ml) for the indicated times. mRNA levels of PDGF-D were examined by qPCR (n=3). (D-E) Representative dot plots and percentages of PDGF-D levels in NK cells after IL-15 (50 ng/ml) treatment for 24 h. Resting NK cells were used as control (n=5). […] (I-J) Binding of p65 to the PDGF-D promoter in IL-15 treated (I) or resting NK cells (J) as determined by ChIP-qPCR (n=3). Data represent three independent experiments. Data shown are means±SD. NS, not significant, *P<0.05, **P<0.01, ***P<0.001, and ****P<0.0001.
Primary NK cells were treated with IL-15 for 1 h. The cells were cross-linked in 1% formaldehyde and quenched with glycine buffer. ChIP assays were carried out using a Pierce Magnetic ChIP Kit (Cat No.26157, Thermo Scientific) according to the manufacturer's instructions. Digested chromatin was incubated overnight with a p65 ChIP-grade antibody (#8242, Cell Signaling Technology) or IgG control antibody (#3900, Cell Signaling Technology). The enriched chromatin was analyzed by qPCR using the following primers: […]

p65 enrichment at the PDGF-D promoter versus normal IgG control (PDGF-D promoter): significantly enriched
Substance: IL-15: recombinant human IL-15 (200-15); recombinant murine IL-15 in the mouse NK cell test
PDGFRβ localisation by immunofluorescence (PDGFRβ; IL-15-treated versus resting NK cells): expressed on the membrane
PDGFRβ in cytoplasmic, nuclear and cell membrane fractions by immunoblotting (PDGFRβ; after stimulation by IL-15): enriched in the cytoplasm and translocated to the cell membrane
